Laboratory results as given in patent US20250353873A1, “COMPOUNDS AND METHODS FOR MODULATING APOE EXPRESSION” (Ionis Pharmaceuticals, Inc., priority 2024, published 2025).
Where “and” joins values, the source holds several entries; their conditions need not be identical. Equal entries are not always repeated. Where two headings read alike, the source gives them in different places. Marks after values point to notes of the source that are not given here. Strand notation (5' to 3'): a small letter for the sugar, then the base; units joined by * are phosphorothioate-linked, units joined directly phosphodiester-linked; [ ] holds rarer units or linkages, { } end groups; capitals alone tell only the bases. [ms] = mesyl phosphoramidate linkage; e = 2'-O-(2-methoxyethyl) (MOE); k = constrained ethyl (cEt); [5mC] = 5-methylcytosine; d = 2'-deoxy (DNA)

Tests used:
human APOE RNA [1] = assay: Dose-dependent reduction of human APOE RNA in HepG2 cells, electroporation, 20,000 cells per well, normalized to PPIA (Example 4, Table 11); assay type: cell-based; conditions: HepG2 cells, 20,000 cells per well, approximately 24 hours; for APOE RNA (% UTC) 5 nM / APOE RNA (% UTC) 13 nM / APOE RNA (% UTC) 33 nM / APOE RNA (% UTC) 82 nM / APOE RNA (% UTC) 205 nM / APOE RNA (% UTC) 512 nM / IC50: PPIA-normalized; for APOE RNA (% UTC) 1,280 nM: PPIA-normalized, 1,280 nM; for APOE RNA (% UTC) 3,200 nM: PPIA-normalized, 3,200 nM; for APOE RNA (% UTC) 8,000 nM: PPIA-normalized, 8,000 nM; for APOE RNA (% UTC) 20,000 nM: PPIA-normalized, 20,000 nM; for IC50: reduction of human APOE RNA
Protocol: HepG2 cells plated at a density of 20,000 cells per well were treated by electroporation with various concentrations of modified oligonucleotide as specified in the tables below. […] APOE RNA levels were measured using the human primer probe set RTS3073 (described herein above). APOE RNA levels were normalized to human PPIA. Human PPIA was amplified using human primer probe set mk_cycloA_2nd (forward sequence […], designated herein as SEQ ID NO: 13; reverse sequence […], designated herein as SEQ ID NO: 14; probe sequence […], designated herein as SEQ ID NO: 15). Normalized results are presented in the table below as percent APOE RNA, relative to the amount of APOE RNA in untreated control cells (% UTC). The half maximal inhibitory concentration (IC50) of each modified oligonucleotide was calculated in GraphPad Prism 10 (GraphPad Software, San Diego, CA) and is also presented in the table below.

human APOE RNA [2] = assay: Duration of action study in APOE C57BL/6NTac-Apoeem7250 knock-in mice (Example 18); assay type: in vivo
Protocol: Modified oligonucleotides described above were tested in the APOE C57BL/6NTac-Apoeem7250 knock-in model (described above).
Each mouse received a single intracerebroventricular (ICV) bolus of 300 μg of modified oligonucleotide. A group of 4-6 mice received a single ICV bolus with PBS as a negative control.
Mice were sacrificed at various timepoints as indicated in the table below and RNA was extracted from cortical brain tissue and spinal cord for quantitative real-time RT-PCR analysis of RNA expression of APOE using primer probe set RTS3073 (described herein above). APOE RNA levels were normalized to mouse Ppia. Mouse Ppia was amplified using primer probe set m_cyclo24 (described herein above). Results are presented as percent human APOE RNA relative to the amount of human APOE RNA in PBS treated animals, (% control). Each experiment is identified in separate tables below.

BJAB cells [3] = assay: Evaluation of proinflammatory effects in BJAB assay, CCL22 RNA (Example 17); conditions: for inflammatory response in human BJAB cells: 24-hour culturing period, assay of Example 17; for LOG10 CCL22 relative to UTC / Immunostimulatory Properties: BJAB cells, 1.6 μM, 24 hours; for LOG10 CCL22 relative to UTC: CCL22 RNA normalized to GAPDH; for Immunostimulatory Properties: assigned relative to internal control compounds of each assay
Protocol: (§1) Human APOE modified oligonucleotides were tested for potential immunostimulatory properties in an in vitro human BJAB activation assay.
(§2) Human Burkitt lymphoma B cells, BJAB cells (DSMZ, Cat #ACC 757) were cultured in RPMI1640 medium containing 20% fetal bovine serum at 37° C. and 5% CO2. Cells were maintained at a density of 0.5-0.7×10^6 cells per milliliter. Cells were transferred to 50 mL conical Falcon tubes and centrifuged at 330 RCF for 5 minutes before being resuspended at a concentration of 7.5×10^4 cells per milliliter in RPMI culture medium containing penicillin and streptomycin. 50 μL of the cell suspension was added to a v-bottom tissue culture treated 96-well microplate. 11 μl of 10× concentrated modified oligonucleotides was then added to the plate for a final concentration of 1.6 μM and incubated for 24 hours at 37° C. and 5% CO2.
(§3) After a treatment period of 24 hours, total RNA was isolated from the cells and CCL22 RNA levels were measured by quantitative real-time RT-PCR. CCL22 RNA levels were measured by human primer-probe set RTS49260 (forward sequence [sequence], designated herein as SEQ ID NO: 19; reverse sequence [sequence], designated herein as SEQ ID NO: 20; probe sequence [sequence], designated herein as SEQ ID NO: 21). CCL22 RNA levels were normalized to total RNA content, as measured by GAPDH. Human GAPDH was measured using the human primer-probe set RTS104 (forward sequence [sequence], designated herein as SEQ ID NO: 10; reverse sequence [sequence], designated herein as SEQ ID NO: 11; probe sequence [sequence], designated herein as SEQ ID NO: 12). Levels of CCL22 RNA is presented log fold increase of CCL22, relative to untreated control cells (UTC). The assignment of the immunostimulatory properties of the test compounds is based on the immunostimulatory properties of the internal control compounds in each assay.

human APOE RNA [4] = assay: Activity in APOE 1549 knock-in mice, single ICV bolus, 2 weeks (Example 7); assay type: in vivo; conditions: single ICV bolus of 300 μg, two weeks post treatment, Table 17
How it was run: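 Human APOE knock-in mice (model 41549), 2 per group, given a single 300 µg ICV bolus of oligonucleotide, with PBS as control. After 2 weeks, APOE RNA in cortex and spinal cord measured by RT-qPCR, normalized to mouse Ppia, and expressed as % of PBS control.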

BJAB cells [5] = system: BJAB cells
Protocol: as §1, §2, §3

[6] = 196 days post-dose, single ICV bolus 300 μg, APOE knock-in mice, normalized to mouse Ppia, relative to PBS
[7] = 224 days post-dose, single ICV bolus 300 μg, APOE knock-in mice, normalized to mouse Ppia, relative to PBS
[8] = 285 days post-dose, single ICV bolus 300 μg, APOE knock-in mice, normalized to mouse Ppia, relative to PBS

## TezTeoGeoGksTdsGdzAdzAdzTds^mCdsTdsTdsTdsAdzTksTksAesAesAes^mCe (antisense eT[ms]eTeGkG*dT*dG[ms]dA[ms]dA[ms]dT*d[5mC]*dT*dT*dT*dA[ms]kT*kT*eA*eA*eA*e[5mC]) [Compound No. 1809814]
Human APOE RNA [1]
  APOE RNA (% UTC) 5 nM: 102 % UTC
  APOE RNA (% UTC) 13 nM: 95 % UTC
  APOE RNA (% UTC) 33 nM: 95 % UTC
  APOE RNA (% UTC) 82 nM: 88 % UTC
  APOE RNA (% UTC) 205 nM: 71 % UTC
  APOE RNA (% UTC) 512 nM: 49 % UTC
  APOE RNA (% UTC) 1,280 nM: 19 % UTC
  APOE RNA (% UTC) 3,200 nM: 31 % UTC
  APOE RNA (% UTC) 8,000 nM: 8 % UTC
  APOE RNA (% UTC) 20,000 nM: 13 % UTC
  IC50: 540 nM
Human APOE RNA [2]; 300 μg ICV, 28 days post-dose
  APOE RNA (% control) Cortex: 55 % control
  APOE RNA (% control) Spinal Cord: 52 % control
Human APOE RNA [2]; 300 μg ICV, 112 days post-dose
  APOE RNA (% control) Cortex: 57 % control
  APOE RNA (% control) Spinal Cord: 39 % control
Human APOE RNA [2]; 300 μg ICV, 140 days post-dose
  APOE RNA (% control) Cortex: 71 % control
  APOE RNA (% control) Spinal Cord: 43 % control
Human APOE RNA [2]; [6]
  APOE RNA (% control) Cortex: 68 % control
  APOE RNA (% control) Spinal Cord: 57 % control
Human APOE RNA [2]; [7]
  APOE RNA (% control) Cortex: 90 % control
  APOE RNA (% control) Spinal Cord: 54 % control
Human APOE RNA [2]; [8]
  APOE RNA (% control) Cortex: 95 % control
  APOE RNA (% control) Spinal Cord: 84 % control
BJAB cells [3]
  inflammatory response in human BJAB cells: did not induce any inflammatory response
  LOG10 CCL22 relative to UTC: 0.07
  Immunostimulatory Properties: Non-Inflammatory

## 1693105: 6-10-4 MOE gapmer CTTGGTGAATCTTTATTAAA, linkages sosssszzzssssszssss (e[5mC]*eTeT*eG*eG*eT*dG[ms]dA[ms]dA[ms]dT*d[5mC]*dT*dT*dT*dA[ms]dT*eT*eA*eA*eA) [compound 1693105]
Human APOE RNA [4]; cortex
  APOE RNA (% control) Cortex: 51 % control
Human APOE RNA [4]; spinal cord
  APOE RNA (% control) Spinal Cord: 38 % control

## ^mCksTksTksGdzGdzTdzGdzAdzAdzTds^mCdsTdsTdsTdsAdsTdsTksAksAdzAk (antisense k[5mC]*kT*kT*dG[ms]dG[ms]dT[ms]dG[ms]dA[ms]dA[ms]dT*d[5mC]*dT*dT*dT*dA*dT*kT*kA*dA[ms]kA) [Compound No. 1785602]
Human APOE RNA [1]
  APOE RNA (% UTC) 5 nM: 75 % UTC
  APOE RNA (% UTC) 13 nM: 85 % UTC
  APOE RNA (% UTC) 33 nM: 75 % UTC
  APOE RNA (% UTC) 82 nM: 62 % UTC
  APOE RNA (% UTC) 205 nM: 44 % UTC
  APOE RNA (% UTC) 512 nM: 31 % UTC
  APOE RNA (% UTC) 1,280 nM: 16 % UTC
  APOE RNA (% UTC) 3,200 nM: 10 % UTC
  APOE RNA (% UTC) 8,000 nM: 8 % UTC
  APOE RNA (% UTC) 20,000 nM: 2 % UTC
  IC50: 140 nM
Human APOE RNA [2]; [6]
  APOE RNA (% control) Cortex: 56 % control
  APOE RNA (% control) Spinal Cord: 34 % control
Human APOE RNA [2]; [7]
  APOE RNA (% control) Cortex: 79 % control
  APOE RNA (% control) Spinal Cord: 56 % control
Human APOE RNA [2]; [8]
  APOE RNA (% control) Cortex: 84† % control
  APOE RNA (% control) Spinal Cord: 72† % control
BJAB cells [3]
  inflammatory response in human BJAB cells: did not induce any inflammatory response
  LOG10 CCL22 relative to UTC: 0.34
  Immunostimulatory Properties: Non-Inflammatory

## Aks^mCeoTeoTesGesGksTdsGdzAdzAdzTds^mCdsTdsTdsTdsAdzTksTksAesAe (kA*e[5mC]eTeT*eG*kG*dT*dG[ms]dA[ms]dA[ms]dT*d[5mC]*dT*dT*dT*dA[ms]kT*kT*eA*eA) [Compound No. 1809635]
Human APOE RNA [1]
  APOE RNA (% UTC) 5 nM: 105 % UTC
  APOE RNA (% UTC) 13 nM: 87 % UTC
  APOE RNA (% UTC) 33 nM: 78 % UTC
  APOE RNA (% UTC) 82 nM: 66 % UTC
  APOE RNA (% UTC) 205 nM: 55 % UTC
  APOE RNA (% UTC) 512 nM: 31 % UTC
  APOE RNA (% UTC) 1,280 nM: 18 % UTC
  APOE RNA (% UTC) 3,200 nM: 16 % UTC
  APOE RNA (% UTC) 8,000 nM: 4 % UTC
  APOE RNA (% UTC) 20,000 nM: 2 % UTC
  IC50: 210 nM
Human APOE RNA [2]; 300 μg ICV, 28 days post-dose
  APOE RNA (% control) Cortex: 29 % control and 25 % control
  APOE RNA (% control) Spinal Cord: 11 % control and 18 % control
Human APOE RNA [2]; 300 μg ICV, 56 days post-dose
  APOE RNA (% control) Cortex: 19 % control
  APOE RNA (% control) Spinal Cord: 11 % control
Human APOE RNA [2]; 300 μg ICV, 112 days post-dose
  APOE RNA (% control) Cortex: 24 % control and 35 % control
  APOE RNA (% control) Spinal Cord: 13 % control and 14 % control
Human APOE RNA [2]; 300 μg ICV, 140 days post-dose
  APOE RNA (% control) Cortex: 52‡ % control
  APOE RNA (% control) Spinal Cord: 27‡ % control
Human APOE RNA [2]; 300 μg ICV, 168 days post-dose
  APOE RNA (% control) Cortex: 35 % control
  APOE RNA (% control) Spinal Cord: 26 % control
Human APOE RNA [2]; 300 μg ICV, 342 days post-dose
  APOE RNA (% control) Cortex: 68 % control
  APOE RNA (% control) Spinal Cord: 36 % control
Human APOE RNA [2]; [6]
  APOE RNA (% control) Cortex: 50 % control
  APOE RNA (% control) Spinal Cord: 33 % control
Human APOE RNA [2]; [7]
  APOE RNA (% control) Cortex: 55 % control
  APOE RNA (% control) Spinal Cord: 26 % control
Human APOE RNA [2]; [8]
  APOE RNA (% control) Cortex: 67 % control
  APOE RNA (% control) Spinal Cord: 41 % control
BJAB cells [5]
  inflammatory response in human BJAB cells: did not induce any inflammatory response
